In US8501936B2 (priority 2009, dated 2013):

What was measured:
human JAK2 = human JAK2 (Homo sapiens (Human), UniProt O60674); conditions: read-out: JAK2 IC50
human FAK = human FAK (Homo sapiens (Human), UniProt Q05397); conditions: read-out: FAK IC50
Chain of human FAK (Q05397 whole entry): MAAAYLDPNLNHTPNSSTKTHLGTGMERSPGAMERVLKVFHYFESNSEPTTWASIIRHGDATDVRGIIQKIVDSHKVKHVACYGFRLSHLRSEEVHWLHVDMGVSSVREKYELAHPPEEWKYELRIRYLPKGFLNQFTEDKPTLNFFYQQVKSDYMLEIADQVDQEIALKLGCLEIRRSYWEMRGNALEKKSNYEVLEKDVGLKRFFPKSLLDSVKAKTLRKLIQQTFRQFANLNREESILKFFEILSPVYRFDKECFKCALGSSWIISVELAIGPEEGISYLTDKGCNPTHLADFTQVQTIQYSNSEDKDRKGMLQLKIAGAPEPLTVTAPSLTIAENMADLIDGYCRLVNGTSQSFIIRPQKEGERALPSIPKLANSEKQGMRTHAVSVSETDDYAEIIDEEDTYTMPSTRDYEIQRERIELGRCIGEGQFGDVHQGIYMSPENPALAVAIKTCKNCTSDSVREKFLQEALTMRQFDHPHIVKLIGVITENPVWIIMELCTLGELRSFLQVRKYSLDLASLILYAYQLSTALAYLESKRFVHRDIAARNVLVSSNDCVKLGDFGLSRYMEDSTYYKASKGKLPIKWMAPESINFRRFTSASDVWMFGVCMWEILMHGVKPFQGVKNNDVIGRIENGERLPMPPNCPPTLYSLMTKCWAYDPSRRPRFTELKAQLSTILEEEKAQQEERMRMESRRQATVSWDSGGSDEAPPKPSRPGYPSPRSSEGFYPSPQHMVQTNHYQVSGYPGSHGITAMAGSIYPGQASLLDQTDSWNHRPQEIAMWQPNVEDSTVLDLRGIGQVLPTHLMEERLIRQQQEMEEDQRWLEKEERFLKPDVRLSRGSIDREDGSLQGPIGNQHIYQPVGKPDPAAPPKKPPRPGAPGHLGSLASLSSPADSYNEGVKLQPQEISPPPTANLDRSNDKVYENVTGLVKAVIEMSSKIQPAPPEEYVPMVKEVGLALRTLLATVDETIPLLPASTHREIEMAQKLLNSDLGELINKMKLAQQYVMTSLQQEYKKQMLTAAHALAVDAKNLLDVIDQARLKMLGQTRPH

Chain of human JAK2 (O60674 815-1132): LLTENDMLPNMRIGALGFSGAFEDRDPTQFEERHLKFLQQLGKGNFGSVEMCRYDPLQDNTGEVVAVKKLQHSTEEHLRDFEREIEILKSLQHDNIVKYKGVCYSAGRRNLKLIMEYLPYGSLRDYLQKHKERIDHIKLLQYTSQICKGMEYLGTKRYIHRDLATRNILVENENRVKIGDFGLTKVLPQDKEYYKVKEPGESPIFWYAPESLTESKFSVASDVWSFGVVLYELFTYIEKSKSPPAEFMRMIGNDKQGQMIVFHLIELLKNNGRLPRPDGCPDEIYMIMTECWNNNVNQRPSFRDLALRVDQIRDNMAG

SMILES | IC50 (human JAK2) [µM] | IC50 (human FAK) [µM]
CS(=O)(=O)c1ccc(-c2cccn3nc(Nc4cccc(N5CCOCC5)c4)nc23)cc1 [Example 27, [8-(4-Methanesulfonyl-phenyl)-[1,2,4]triazolo[1,5-a]pyridin-2-yl]-(3-morpholin-4-yl-phenyl)-amine] | 0.0004 | 2.02
COc1ncccc1-c1cccn2nc(Nc3ccc(C4CCNCC4)cc3)nc12 [Example 272] | 0.377 | 10
CN1CCN(c2cccc(Nc3nc4c(NCc5ccccc5S(C)(=O)=O)cccn4n3)c2)CC1 [Example 139, N(8)-(2-Methanesulfonyl-benzyl)-N(2)-[3-(4-methyl-piperazin-1-yl)-phenyl]-[1,2,4]triazolo[1,5-a]pyridine-2,8-diamine] | 0.0263 | 0.2
COCc1ccccc1-c1cccc2nc(Nc3ccc4c(c3)CCN(CC(=O)N(C)C)CC4)nn12 [Example 229, 2-{7-[5-(2-Methoxymethyl-phenyl)-[1,2,4]triazolo[1,5-a]pyridin-2-ylamino]-1,2,4,5-tetrahydro-benzo[d]azepin-3-yl}-N,N-dimethyl-acetamide] | 0.0474 | 3
CN1CCN(c2cccc(Nc3nc4cccc(-c5ccc(S(C)(=O)=O)cc5)n4n3)c2)CC1 [Example 92, [5-(4-Methanesulfonyl-phenyl)-[1,2,4]triazolo[1,5-a]pyridin-2-yl]-[3-(4-methyl-piperazin-1-yl)-phenyl]-amine] | 0.0028 | 1.27
CS(=O)(=O)c1ccc(-c2cccc3nc(Nc4cccc(S(C)(=O)=O)c4)nn23)cc1 [Example 94, (3-Methanesulfonyl-phenyl)-[5-(4-methanesulfonyl-phenyl)-[1,2,4]triazolo[1,5-a]pyridin-2-yl]-amine] | 0.0093 | 3
CN1CCN(c2ccc(Nc3nc4c(-c5ccc(S(C)(=O)=O)cc5)cc(F)cn4n3)cc2)CC1 [Example 106, [6-Fluoro-8-(4-methanesulfonyl-phenyl)-[1,2,4]triazolo[1,5-a]pyridin-2-yl]-[4-(4-methyl-piperazin-1-yl)-phenyl]-amine] | 0.0316 | 3
COc1ccccc1CNc1cccn2nc(Nc3ccc(C)nc3)nc12 [Example 403, N(8)-(2-Methoxy-benzyl)-N(2)-(6-methyl-pyridin-3-yl)-[1,2,4]triazolo[1,5-a]pyridine-2,8-diamine] | 0.0276 | 1.88
CN1CCN(Cc2cccc(Nc3nc4cccc(-c5ccc(S(C)(=O)=O)cc5)n4n3)c2)CC1 [Example 118, [5-(4-Methanesulfonyl-phenyl)-[1,2,4]triazolo[1,5-a]pyridin-2-yl]-[3-(4-methyl-piperazin-1-ylmethyl)-phenyl]-amine] | 0.00143 | 2.86
CN1CCN(C2CCN(c3ccc(Nc4nc5c(-c6ccc(S(C)(=O)=O)cc6)cccn5n4)cc3)CC2)CC1 [Example 51, [8-(4-Methanesulfonyl-phenyl)-[1,2,4]triazolo[1,5-a]pyridin-2-yl]-{4-[4-(4-methyl-piperazin-1-yl)-piperidin-1-yl]-phenyl}-amine] | 0.0018 | 0.168
C[C@H](O)CN1CCN(c2cccc(Nc3nc4c(-c5ccc(S(C)(=O)=O)cc5)cccn4n3)c2)CC1 [Example 142, (S)-1-(4-{3-[8-(4-Methanesulfonyl-phenyl)-[1,2,4]triazolo[1,5-a]pyridin-2-ylamino]-phenyl}-piperazin-1-yl)-propan-2-ol] | 0.00075 | 0.935
CS(=O)(=O)c1ccc(-c2cccn3nc(Nc4ccc(CN5CCS(=O)(=O)CC5)cc4)nc23)cc1 [Example 114, N-{4-[(1,1-dioxidothiomorpholin-4-yl)methyl]phenyl}-8-[4-(methylsulfonyl)phenyl][1,2,4]triazolo[1,5-a]pyridin-2-amine] | 0.00075 | 1.48
